Experimental data: US11753408B2, “Compounds and method for blocking transmission of malarial parasite” (The United States of America, as represented by the …, priority 2016, dated 2023)
Like-named read-outs stand apart in the source and are kept apart here.

How the values were obtained:
Solubility at pH 7.4 = type: physicochemical
[1] = Microsomal stability (rat); type: in vitro ADME; conditions: rat microsomes
PAMPA permeability = type: in vitro ADME; conditions: PAMPA
[2] = test system: Asexual parasites of P. falciparum strain 3D7; assay: In vitro drug activity on asexual parasites (SYBR Green assay); type: cell-based, Plasmodium falciparum
Protocol: Cell culture. Asexual parasites of P. falciparum strain 3D7 were cultured as described previously [Trager W, et al., Journal of Parasitology 2005, 91: 484-486], Stage III-V gametocytes were selected and enriched with 3-day treatment with 50 mM N-acetylglucosamine (NAG) and the following Percoll density gradient centrifugation after gametocyte production [Tanaka T Q, et al., Molecular and Biochemical Parasitology, 2011, 111: 160-163], Gametocytes of HB3 and Dd2 strains were produced and then set up for assay in a similar process. HepG2 cells (ATCC, cat. no. 77400) were cultured in 175-cm^2 tissue culture flasks with 30 ml growth medium at 37° C. in a 5% CO2 humidified atmosphere. Growth medium was made with Dulbecco's Modified Eagle Medium with 10% fetal bovine serum (FBS). Growth medium was replaced every other day and cells were passed at 75% confluence.
Asexual parasites of P. falciparum strain 3D7 were cultured as described previously (Trager, W. et al., J. Parasitol. 2005, 91(3): 484-486). Drug activity on asexual stage parasites was tested using a SYBR Green assay as described previously (Eastman, R. T. et al., Antimicrob. Agents Chemother. 2013, 57(1): 425-435; Smilkstein, M. et al., Antimicrob. Agents Chemother. 2004, 48(5): 1803-1806). Briefly, parasites were diluted to 0.5% parasitemia in complete culture medium with 2% hematocrit and drugs diluted in DMSO (≤0.5%) and were loaded into a 96-well plate (200 μl/well). No drug and RBC alone wells were included as positive and background controls, respectively, and each testing condition was examined in duplicated. After 72 h incubation under the standard culture condition and a freeze-thaw lysis step at −80° C. and room temperature, 100 μl/well of lysis buffer containing SYBR Green I was added to the parasite culture and incubated for 30 min at room temperature. The fluorescence of each well was measured at 520 nm following excitation at 490 nm using a FLUOstar Optima™ microplate reader (BMG Labtech).

mTOR = mTOR (Homo sapiens, UniProt P42345); assay: mTOR activity (no method described); type: biochemical
[3] = P. falciparum 3D7 asexual parasites, 72 h, SYBR Green

Compound	Sol @ pH 7.4 (ug/mL) (Solubility at pH 7.4)	Microsomal Stability (rat) T1/2 [1] [min]	PAMPA Permeability (×10^6 cm/s) (PAMPA permeability)	EC50 [2, 3] [nM]	Sol @ pH 7.4 (Solubility at pH 7.4) [ug/mL]	EC50 [2] [nM]	mTOR (mTOR) [µM]
Cc1cc(N2CCNCC2)c(C#N)cc1-n1c(=O)ccc2cnc3ccc(-c4ccc(Cl)cc4)cc3c21 [Compound 11]	<1	9.6	21 ×10^6 cm/s				
CS(=O)(=O)c1ccc(-n2c(=O)ccc3cnc4ccc(-c5ccc(CN6CCCC6)cc5)cc4c32)cc1 [Compound 33]	61	>30	439.2 ×10^6 cm/s	288			
Cc1cc(S(C)(=O)=O)ccc1-n1c(=O)ccc2cnc3ccc(-c4ccc(Cl)cc4)cc3c21 [Compound 34]	<1	17.1	<1 ×10^6 cm/s	59.4			
CS(=O)(=O)c1ccc(-n2c(=O)ccc3cnc4ccc(-c5ccc(Cl)cc5)cc4c32)cc1CN1CCNCC1 [Compound 35]	4.3	>30	35 ×10^6 cm/s	75.8			
CS(=O)(=O)c1ccc(-n2c(=O)ccc3cnc4ccc(-c5ccc(C6(N)CC6)cc5)cc4c32)cc1 [Compound 36]	5.9	>30	6.5 ×10^6 cm/s	188			
CS(=O)(=O)c1ccc(-n2c(=O)ccc3cnc4ccc(-c5ccc(N)nc5)cc4c32)cc1Cl [Compound 61]	2.3	>30	<1 ×10^6 cm/s	8.49			
CN(C)CCc1ccc(-c2ccc3ncc4ccc(=O)n(-c5ccc(S(C)(=O)=O)cc5)c4c3c2)cc1 [Compound 68]	15.7	>30	148.7 ×10^6 cm/s	131			
CN(C)CCCNC(=O)c1ccc(-n2c(=O)ccc3cnc4ccc(-c5ccc(Cl)cc5)cc4c32)cc1 [Compound 258]		24.4			0	34.3	2.541
O=C(NCCCN(CCO)CCO)c1ccc(-n2c(=O)ccc3cnc4ccc(-c5ccc(Cl)cc5)cc4c32)cc1 [Compound 259]		2.6			0	24.2	0.6559
O=C(NCCCN1CCCCC1)c1ccc(-n2c(=O)ccc3cnc4ccc(-c5ccc(Cl)cc5)cc4c32)cc1 [Compound 260]		2.1			0	62.4	5.024
O=C(NCCCN1CCS(=O)(=O)CC1)c1ccc(-n2c(=O)ccc3cnc4ccc(-c5ccc(Cl)cc5)cc4c32)cc1 [Compound 261]		1.7			0	60	1.871
CN1CCN(CCCNC(=O)c2ccc(-n3c(=O)ccc4cnc5ccc(-c6ccc(Cl)cc6)cc5c43)cc2)CC1 [Compound 262]		4.3			0	214	5.399
O=C(NC1CCN(CCO)CC1)c1ccc(-n2c(=O)ccc3cnc4ccc(-c5ccc(Cl)cc5)cc4c32)cc1 [Compound 263]		>30			0	58.8	1.512
CN1CCN(CCNC(=O)c2ccc(-n3c(=O)ccc4cnc5ccc(-c6ccc(Cl)cc6)cc5c43)cc2)CC1 [Compound 264]		4.5			0	56.6	1.321
O=C(NCCN1CCCCC1)c1ccc(-n2c(=O)ccc3cnc4ccc(-c5ccc(Cl)cc5)cc4c32)cc1 [Compound 265]		1.9			0	132	2.064
CCN(CC)CCCNC(=O)c1ccc(-n2c(=O)ccc3cnc4ccc(-c5ccc(Cl)cc5)cc4c32)cc1 [Compound 266]		2.8			0	58.3	3.013
O=C(NCCCN1CCCC1)c1ccc(-n2c(=O)ccc3cnc4ccc(-c5ccc(F)cc5)cc4c32)cc1 [Compound 267]		8			0	58.1	3.878
O=C(NCCN1CCOCC1)c1ccc(-n2c(=O)ccc3cnc4ccc(-c5ccc(F)cc5)cc4c32)cc1 [Compound 268]		2			0	211	4.985
NC1(c2ccc(-c3ccc4ncc5ccc(=O)n(-c6ccc(C(=O)N7CCN(CCO)CC7)cc6)c5c4c3)cc2)CC1 [Compound 269]		>30			0	390	3.874
CN(C)CCN1CCN(C(=O)c2ccc(-n3c(=O)ccc4cnc5ccc(-c6ccc(C7(N)CC7)cc6)cc5c43)cc2)CC1 [Compound 270]		>30			0	348	3.254
N#Cc1cc(-n2c(=O)ccc3cnc4ccc(-c5ccc(Cl)cc5)cc4c32)ccc1C(=O)N1CCOCC1 [Compound 271]		14			0	613	16.14
COc1cc(C(=O)NC2CC2)ccc1-n1c(=O)ccc2cnc3ccc(-c4ccc(Cl)c(O)c4)cc3c21 [Compound 273]		>30			<1	18.9	4.164
O=C(c1ccc(-n2c(=O)ccc3c(O)nc4ccc(-c5ccc(Cl)cc5)cc4c32)cc1)N1CCOCC1 [Compound 294]		8.4			0	2050	4.586
O=C(NC1CC1)c1ccc(-n2c(=O)ccc3cnc4ccc(-c5ccc(F)cc5)cc4c32)cn1 [Compound 301]		>30			<1	206	50
O=C(c1ccc(-n2c(=O)ccc3cnc4ccc(-c5ccc(Cl)cc5)cc4c32)cc1)N1CCC(O)CC1 [Compound 302]		12			<1	16.4	1.595
O=C(NO)c1ccc(-n2c(=O)ccc3cnc4ccc(-c5ccc(Cl)cc5)cc4c32)cc1 [Compound 303]		>30			0.7	6.45	0.2376
CN(C)Cc1ccc(-c2ccc3ncc4ccc(=O)n(-c5ccc6c(c5)C(=O)N(C)C6=O)c4c3c2)cc1 [Compound 352]	>72.0		343.6 ×10^6 cm/s	18800			
CC(N)c1ccc(-c2ccc3ncc4ccc(=O)n(-c5ccc6c(c5)CNC6=O)c4c3c2)cc1 (stereo not shown) [Compound 381]	44.9	>30	4 ×10^6 cm/s				
